The source of these data is US8093273B2, “Flavanoids and isoflavanoids for the prevention and treatment of cardiovascular diseases” (Resverlogix Corp., priority 2004, dated 2012).

By melting point is commonly meant the temperature of the solid-liquid transition. The term Papp denotes a coefficient for how fast a substance crosses the barrier. Low values mean poor permeation, high ones ready permeation. One may read the solubility as the dissolved amount per volume that the medium holds. The low end stands for a poorly soluble substance, the high end for a readily soluble substance.

Values after ≈ are worked out from the molar mass of the structure shown. Where two headings read alike, the source gives them in different places.

In data set [1] the test system is human ApoA-I promoter. As to the kind of experiment: ApoA-I promoter induction in Caco-2 intestinal cells (pAI.474-Luc luciferase reporter). Type of data set: cell-based. To be noted: Caco-2 cells, 15 μM, 48 hours incubation, luciferase activity vs control samples. Put shortly:
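Caco-2 cells stably carrying the human ApoA-I promoter–firefly luciferase construct (pAI.474-Luc) were starved 24 h in 0.5% FBS medium, then exposed to compound at 0 to 100 μM final for 48 h at 37° C. Luciferase activity in lysates was normalized to Bradford protein and compared with solvent-only and untreated controls.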
A general note: Reporter assays use an easily measured gene product as a stand-in for the process of interest.

Data set [2] has as its system human ApoA-I promoter. As to the kind of experiment: ApoA-I promoter induction in HepG2 liver cells (pAI.474-Luc luciferase reporter). Type of data set: cell-based. To be noted: average values at 15 μM, 48 hours incubation. The procedure:
This study determined whether compounds of the invention have an effect on ApoA-I promoter activity expression in HepG2 cells, a liver cell line. Cells were grown under conditions recommended by the ATCC and summarized by Wong.
The promoter region of the gene encoding human ApoA-I was isolated and ligated upstream the structure gene of firefly luciferase to construct a reporter plasmid (pAI.474-Luc). The reporter plasmid, along with pRSV-β-galactosidase (as a control for transfection efficiency), were co-transfected into HepG2 cells. The cells were then incubated in an MEM selection media containing 20% fetal calf serum supplemented with G418 (final concentration: 0.5 mg/mL, Gibco) to give established strains that stably express from the reporter gene. The strains were seeded to a 6-well culture plates and incubated for 48 hours at 37° C. under 5% carbon dioxide. Cells were starved for 24 hrs in MEM selection media containing 0.5% FBS. Then, a solution of the compounds of the invention in DMSO (or other appropriate solvent) was added to the wells at a final concentration of 0 to 100 μM in MEM selection media containing 0.5% FBS.
After further incubation for 48 hours, the cells were harvested and lysed using Reporter Lysis Buffer (PROMEGA E3971), and 50 μL of luciferase assay reagent (PROMEGA E4550 Luciferase Reporter 1000 assay system) were added to measure luciferase activity with a luminometer (Fluoroskan Ascent FL from Thermo electron Corporation). Luciferase activity was normalized to lysate protein concentrations, measured using Bradford Reagent (Biorad Protein Assay reagent Cat #500-0006).

Data set [3] can be described thus: Caco-2 permeability. Type of data set: in vitro ADME, human. To be noted: human, Caco-2. The text has this:
The Caco-2 cell drug transport model is widely used for screening compounds in drug discovery to assess intestinal transport and predict absorption rates.
On the technique in general: Passage across Caco-2 layers is used to estimate intestinal permeability.

Data set [4] relates to hApoA-I transgenic mice. As to the kind of experiment: hApoA-I transgenic mice, oral gavage for 14 days. Type of data set: in vivo. To be noted: Mus musculus, po, 336 h, 10 mg/kg BID 14 days, relative to pretreatment, read-out: ApoA-I (% change). The text has this: To test whether the efficacy of compounds of the invention observed in vitro extended to an in vivo model, transgenic mice carrying multiple copies of the human ApoA-I gene (C57BI/6-tgn(apoa1)1 rub, Jackson Laboratory, Bar Harbor, Me.) were exposed to representative compounds of the invention. The exogenous human ApoA-I gene in these mice enables them to express the human ApoA-I protein under the control of this promoter.
Seven to eight week old male mice, transgenic for human ApoA-I were housed five per cage (10″×20″×8″ with aspen chip bedding) with pelleted Rodent chow [Purina 5001] and water available at all times. After an acclimation period of 1 week, animals were individually identified by numbering on tail and weighed. Mice were pre bled via the retro-orbital plexus, and 150 μl of blood was collected in 1.5 ml Eppendorf tube containing 1 μl of heparin and chilled on ice. Plasma was collected after centrifuging the whole blood at 14000 rpm [TOMY high speed micro-refrigerated centrifuge NTX-150] for 10 minutes at 4° C. and frozen at −80° C. Plasma was analyzed for: human ApoA-I by a human ApoA-I enzyme-linked Immunoassay [Direct Sandwich ELISA Calbiochem Cat#178422, Calbiochem Cat#178452, lot #B9076, Calbiochem Cat #178470 conjugated to Horse Radish Peroxidase (Cedarlane Cat#80220)]; total cholesterol [Ponte scientific reagents: # C7509-STD, #L7580-18, # C7510]; and triglyceride [Pointe Scientific Reagents: # 7532-STD, # L7580-18, #7532]. All samples were measured in triplicates and expressed as mg/dl. Mice were grouped based on the above plasma parameters and having an average body weight of 25 gm.
Two days following pre-bleed, mice were dosed by oral gavage daily for 14 days using a 20 gauge, 11/2″ curved disposable feeding needle [Popper & Sons]; when BID, mice were gavaged morning and afternoon (8 am and 5 pm); when SID mice were gavaged in morning (8 am). Compounds were prepared each day in vehicle. Test article(s), a positive control fenofibrate, and vehicle were dosed at volume of 5 mL/kg of body weight as a suspension (0.1 mL/20 g mouse). Fenofibrate was obtained commercially [SIGMA #F 6020]. Mice weights were recorded on day 1, 4, 7, 10, 12, and 15. On day 15, mice were weighed and fasted for 4 hours, sacrificed by inhalation of CO2 and blood was obtained via cardiac puncture (0.7-1.0 ml). Plasma was collected and frozen at −80° C. Samples were assayed for ApoA-I, total cholesterol, triglyceride and HDL-C by HPLC [Polaris 200 with an auto sampler Prostar 410 from Varian on a Superose 6 10/30 column from Amersham]. Samples were sent for NMR analysis [LipoScience] to identify particle size and subclass for lipoproteins. During necropsy, liver, brown fat, and the whole of small and large intestines were collected, cleaned with cold PBS and frozen at −80° C. for further analysis of compound levels. Variation between studies, in ApoA-I changes, was observed. Therefore, a relative comparison between individual(s) in the study groups was used.
4′-hydroxyflavone (10 mg/kg of body weight), 4-(4-oxo-4H-chromen-2-yl)phenyl nicotinate (Example 71) (10 mg/kg of body weight) and fenofibrate (100 mg/kg of body weight) were BID administered to hApoA-I transgenic mice daily for fourteen days by oral gavage in 0.5% Methylcellulose (w/v)/1% Tween 80 (w/v). Plasma was assayed for ApoA-I (FIG. 3A), HDL cholesterol and total cholesterol (FIG. 3B) and percent weight gain (FIG. 3C).
4′-hydroxyflavone (3 mg/kg of body weight), 4′-hydroxyflavone (10 mg/kg of body weight), 4′-hydroxyflavone (30 mg/kg of body weight), 2-(4-Hydroxy-phenyl)-pyrano[2,3-b]pyridin-4-one (10 mg/kg of body weight), and fenofibrate (100 mg/kg of body weight) were BID administered to hApoA-I transgenic mice daily for fourteen days by oral gavage in 0.5% methylcellulose (w/v)/1% Tween 80 (w/v). In this experiment plasma was assayed for ApoA-I. […]

Data set [5] in a line: Solubility analysis in PBS (HPLC-UV). The settings on record: aqueous buffer, thermodynamic from solid; 1 mg in 1 mL PBS, sonicated 1 hour, 25° C. for 3 hrs. Type of data set: physicochemical. The procedure: Samples were then centrifuged at 14,000 rpm for 6 minutes at room temperature. The supernatant was diluted with acetonitrile and was removed for analysis. Analysis was performed using HPLC-UV with 7-point standard curve to determine the concentration. The average concentration calculated is regarded as the solubility (μM).

Data set [6] relates to ApoA-I protein. As to the kind of experiment: ApoA-I protein expression in HepG2 cells (ELISA of conditioned media). Type of data set: cell-based, human. To be noted: 7.5 μM; for ApoA-I content in the medium (ELISA): 6 and 24 hours, vs untreated cells and cells treated with solvent; for time after addition of compound at which ApoA-I levels in the medium start to increase: time course 0, 6, 24 hours. The method, then:
This study confirmed that compounds of the invention have an effect on ApoA-I protein secretion in HepG2 (liver) cells by measuring whether stimulation of transcriptional activity of the endogenous ApoA-I promoter in the HepG2 cells increased the abundance and secretion of ApoA-I protein.
The HepG2 cell line was obtained from the ATCC and cultured in MEM media supplemented with 10% FBS (Gibco), with 1 mM sodium pyruvate, 0.1 mM MEM non-essential amino acid, 2 mM L-glutamine, 100 U/ml penicillin, 100 μg/ml streptomycin and 5 μg/ml plasmocin. Cells were maintained at 37° C. in an atmosphere of 5% CO2 Cells were grown to 85% confluency prior to initiating the experiment.
Cells were plated and allowed to adhere overnight in a phenol red-free DMEM containing 10% of Charcoal/Dextran treated FBS (Hyclone), with 1 mM sodium pyruvate, 0.1 mM MEM non-essential amino acid, 2 mM L-glutamine, 100 U/ml penicillin, 100 μg/ml streptomycin and 5 μg/ml plasmocin. The medium was removed, and cells were washed in 1×PBS. Cells were then starved in phenol red-free DMEM (serum free) for a period of 24 hours. Cells were then mock treated (untreated, DMSO), or treated with compound of the invention diluted in phenol red-free DMEM (serum free) media at a concentration of 7.5 μM. Cells and media were harvested at 0, 6 and 24 hours following compound treatment.
Medium was removed from cells at the desired times and applied to a solid phase capture sandwich in an ELISA assay according to manufacturer's instructions (Total human Apolipoprotein ELISA Assay-Alercheck).

Where [7] appears, read: Table 6 fourth group, Control 3 1.11.

`O=c1[nH]c(-c2ccc(O)cc2)cc2ccccc12` [Example 53, 3-(4-hydroxyphenyl)-2H-isoquinolin-1-one] had a melting point of 239 to 241 °C. The “ApoA-I Promoter Induction” value in data set [1] is on record as “increased”. In addition, in data set [2], the “ApoA-I Promoter Induction” value is “increased”. The Papp in data set [3] is 1.76 ×10⁻⁶ cm/s. In addition, in data set [4] (setting [7]), the change in vivo at 10 mg/kg amounted to 13.2%. Besides, the solubility at 3 h in data set [5] was found to be 44.9 µM (≈ 10.7 µg/mL).
For `O=c1cc(-c2ccc(O)c(F)c2)oc2ncccc12` [Example 37, 2-(3-fluoro-4-hydroxyphenyl)pyrano[2,3-b]pyridine-4-one], the melting point was in the range of 267 to 268 °C. Moreover, in data set [1], the “ApoA-I Promoter Induction” value was “increased”. In data set [3], this compound displayed an apparent permeability coefficient (Papp) of 2.06 ×10⁻⁶ cm/s. In data set [4] (Table 6 second group, Control 1 3.42), the change in vivo at 10 mg/kg came out at 14.4%. In data set [5], the concentration in solution (solubility at 3 h) came to 194 µM (≈ 50 µg/mL).
As to `O=c1cc(-c2ccc(O)c(CO)c2)oc2ncccc12` [Example 81, 2-(4-hydroxy-3-(hydroxymethyl)phenyl)-4H-pyrano[2,3-b]pyridin-4-one], the melting point is 226 to 227 °C. Further, in data set [1], the “ApoA-I Promoter Induction” value is on record as “increased”. In data set [5], this compound showed a solubility at 3 h of 48.5 µM (≈ 13.1 µg/mL).
On to `O=c1cc(-c2ccc(O)cc2)oc2ccncc12` [Example 39, 2-(4-hydroxyphenyl)-4H-pyrano[3,2-c]pyridine-4-one], for which the melting point lay in the range of 306 to 308 °C. In addition, the “ApoA-I Promoter Induction” value in data set [1] is recorded as “increased”. Further, the Papp in data set [3] is 1.21 ×10⁻⁶ cm/s. Further, in data set [4] (setting [7]), the change in vivo at 10 mg/kg was 11.2%. The solubility at 3 h in data set [5] is 31.6 µM (≈ 7.56 µg/mL).
`COc1cc(OC)c2c(=O)[nH]c(-c3ccc(O)cc3)cc2c1` [Example 60, 3-(4-Hydroxyphenyl)-6,8-dimethoxyisoquinolin-1(2H)-one] had a melting point of 245 to 247 °C. Moreover, the “ApoA-I Promoter Induction” value in data set [1] is “increased”. Moreover, the solubility at 3 h in data set [5] came out at 58.2 µM (≈ 17.3 µg/mL).
As for `O=c1cc(-c2ccc(O)c(Br)c2)oc2ncccc12` [Example 42, 2-(3-bromo-4-hydroxyphenyl)-4H-pyrano[2,3-b]pyridin-4-one], the melting point is 267 to 272 °C. For the same compound, the “ApoA-I Promoter Induction” value in data set [1] is “increased”. For the same compound, the Papp in data set [3] is 0.959 ×10⁻⁶ cm/s. For the same compound, the concentration in solution in data set [5] (solubility at 3 h) was 52.6 µM (≈ 16.7 µg/mL).
For `O=c1cc(-c2ccc(O)c(F)c2)oc2ccc(CO)cc12` [Example 33, 2-(3-fluoro-4-hydroxyphenyl)-6-(hydroxymethyl)-4H-chromen-4-one], the melting point lay within 256 to 258 °C. Besides, in data set [1], the “ApoA-I Promoter Induction” value is “increased”. Further, in data set [5], the concentration in solution (solubility at 3 h) was 51.4 µM (≈ 14.7 µg/mL).
In turn, `O=c1cc(-c2ccc(O)c(Cl)c2)oc2ncccc12` [Example 41, 2-(3-chloro-4-hydroxyphenyl)-4H-pyrano[2,3-b]pyridine-4-one] registered a melting point of 259 to 262 °C. In addition, the “ApoA-I Promoter Induction” value in data set [1] is “increased”. For the same compound, the Papp in data set [3] came to 1.76 ×10⁻⁶ cm/s. In addition, the solubility at 3 h in data set [5] stood at 84.4 µM (≈ 23.1 µg/mL).
With `O=c1cc(-c2ccc(OCCO)cc2)oc2ncccc12` [Example 45, 2-(4-(2-hydroxyethoxy)phenyl)-4H-pyrano[2,3-b]pyridine-4-one], the melting point is 157 to 159 °C. Besides, the “ApoA-I Promoter Induction” value in data set [1] is listed as “increased”. Moreover, the solubility at 3 h in data set [5] was 334 µM (≈ 94.6 µg/mL).
Turning to `COc1ccc(-c2cc(=O)c3cccnc3o2)cc1` [Example 44, 2-(4-methoxyphenyl)-4H-pyrano[2,3-b]pyridine-4-one], the melting point was in the range of 269 to 270 °C. For the same compound, the “ApoA-I Promoter Induction” value in data set [1] is “increased”. In addition, in data set [6], the “ApoA-I content in the medium (ELISA)” value is reported as “increased significantly” and the “time after addition of compound at which ApoA-I levels in the medium start to increase” value is roughly 6 h.
On to `Cc1c(-c2ccc(O)cc2)oc2ccccc2c1=O` [Example 24, 2-(4-hydroxyphenyl)-3-methyl-4H-chromen-4-one], for which the melting point was 241 to 242 °C. Also, in data set [6], the “ApoA-I content in the medium (ELISA)” value is reported as “increased significantly” and the “time after addition of compound at which ApoA-I levels in the medium start to increase” value is roughly 6 h.
